# Results taken from patent US9404081B2, “Pyruvate kinase activators for use in therapy” (AGIOS PHARMACEUTICALS, INC., priority 2011, dated 2016).
# How the values were obtained:
# Format in all cases: biochemical
# [1] = molecular target: PKR R510Q (Homo sapiens, UniProt P30613, R510Q); assay: PKR R510Q Single Point Percent Activation Assay; conditions: read-out: Act. % 510Q
# Protocol: PKR R510Q Single Point Percent Activation Assay
# (§1) A compound described herein was diluted with DMSO and tested at 1 μM concentration. The enzyme was diluted in 1× Buffer: (100 mM KCl, 50 mM Tris 7.5, 5 mM MgCl2, 1 mM DTT, 0.03% BSA). 2 μL of compound solution was first added into wells, and then 180 μL of enzyme solution was added. Assays were assembled except for ADP, and plates were stored for 60 minutes at RT. 20 μL ADP was added to start the assay and assay output was evaluated using OD340 at SpectraMax. The assay was run at room temperature.
# Final concentration: PKR R510Q (40 ng/well), Tris pH 7.5 (50 mM), KCl (100 mM), MgCl2 (5 mM), ADP (0.2 mM), PEP (0.11 mM), NADH (180 μM), LDH (0.5 units, Sigma 59023), DTT (1 mM) and BSA (0.03%).
# [2] = molecular target: PKR R532W (Homo sapiens, UniProt P30613, R532W); assay: PKR R532W Single Point Percent Activation Assay; conditions: read-out: Act, % 532W
# PKR R532W, sequence (P30613 whole entry R532W): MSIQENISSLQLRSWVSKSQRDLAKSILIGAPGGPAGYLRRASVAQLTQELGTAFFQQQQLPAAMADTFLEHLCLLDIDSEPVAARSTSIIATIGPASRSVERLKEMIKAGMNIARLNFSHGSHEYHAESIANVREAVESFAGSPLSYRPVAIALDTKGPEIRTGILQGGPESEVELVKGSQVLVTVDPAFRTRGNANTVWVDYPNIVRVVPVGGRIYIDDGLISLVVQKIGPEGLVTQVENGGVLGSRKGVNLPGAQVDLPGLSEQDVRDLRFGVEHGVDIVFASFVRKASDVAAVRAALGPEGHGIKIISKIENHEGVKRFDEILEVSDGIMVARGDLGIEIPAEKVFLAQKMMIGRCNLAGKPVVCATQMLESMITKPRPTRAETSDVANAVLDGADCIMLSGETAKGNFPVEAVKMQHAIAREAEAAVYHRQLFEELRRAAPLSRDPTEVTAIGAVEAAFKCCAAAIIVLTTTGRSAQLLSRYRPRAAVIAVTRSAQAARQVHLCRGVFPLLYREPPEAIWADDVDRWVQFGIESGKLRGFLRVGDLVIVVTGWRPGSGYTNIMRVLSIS
# Protocol: PKR R532W Single Point Percent Activation Assay
# as §1
# Final concentration: PKR R532W (100 ng/well), Tris pH 7.5 (50 mM), KCl (100 mM), MgCl2 (5 mM), ADP (0.36 mM), PEP (0.1 mM), NADH (180 μM), LDH (0.5 units, Sigma 59023), DTT (1 mM) and BSA (0.03%).
# [3] = molecular target: PKR T384W (Homo sapiens, UniProt P30613, T384W); assay: PKR T384W Single Point Percent Activation Assay; conditions: read-out: Act. % 384W
# PKR T384W, sequence (P30613 whole entry T384W): as the sequence (P30613 whole entry R532W) above, with T384W, W532R counted along it
# Protocol: PKR T384W Single Point Percent Activation Assay
# as §1, with “180 μL enzyme solution” for “180 μL of enzyme solution”
# Final concentration: PKR T384W soluble (300 ng/well), Tris pH 7.5 (50 mM), KCl (100 mM), MgCl2 (5 mM), ADP (0.08 mM), PEP (0.23 mM), NADH (180 μM), LDH (0.5 units, Sigma 59023), DTT (1 mM) and BSA (0.03%).
# [4] = molecular target: PKR wt (Homo sapiens, UniProt P30613); assay: PKR WT Single Point Percent Activation Assay
# PKR wt, sequence (P30613 whole entry): as the sequence (P30613 whole entry R532W) above, with W532R counted along it
# Protocol: PKR WT Single Point Percent Activation Assay
# as §1
# Final concentration: PKR wt (100 ng/well), Tris pH 7.5 (50 mM), KCl (100 mM), MgCl2 (5 mM), ADP (0.48 mM), PEP (0.15 mM), NADH (180 μM), LDH (0.5 units, Sigma 59023), DTT (1 mM) and BSA (0.03%).
# PKR R510Q, sequence (P30613 whole entry R510Q): as the sequence (P30613 whole entry R532W) above, with R510Q, W532R counted along it
Structure (SMILES),activation at 1 µM [1],activation at 1 µM [2],activation at 1 µM [3],activation at 1 µM [4]
O=C(c1ccc(NS(=O)(=O)c2cccc3cccnc23)cc1)N1CC2CCC(C1)N2CC1CC1,101 to 500%,101 to 500%,101 to 500%,1 to 100%
O=C(c1ccc(NS(=O)(=O)c2cccc3cccnc23)cc1)N1C2CCC1CN(CC1CC1)C2,1 to 100%,101 to 500%,101 to 500%,101 to 500%
CC(c1ccccc1F)N1CCN(C(=O)c2ccc(NS(=O)(=O)c3cccc4cccnc34)cc2)[C@H](C)C1 (stereo partly drawn),1 to 100%,1 to 100%,1 to 100%,1 to 100%
C[C@H]1CN(C(=O)c2ccc(NS(=O)(=O)c3cccc4cccnc34)cc2)CCN1Cc1ccccc1,101 to 500%,101 to 500%,101 to 500%,101 to 500%
O=C(c1ccc(NS(=O)(=O)c2cccc3cccnc23)cc1)N1CC2CCC(C1)N2Cc1cc(F)cc(F)c1,101 to 500%,1 to 100%,101 to 500%,101 to 500%
CC(c1ccc(F)cc1F)N1CCN(C(=O)c2ccc(NS(=O)(=O)c3cccc4cccnc34)cc2)[C@H](C)C1 (stereo partly drawn),1 to 100%,1 to 100%,1 to 100%,101 to 500%
O=C(c1ccc(NS(=O)(=O)c2cccc3cccnc23)cc1)N1CCN(Cc2cc(F)cc(F)c2)c2ccccc21,1 to 100%,101 to 500%,101 to 500%,101 to 500%
O=C(c1ccc(NS(=O)(=O)c2cccc3cccnc23)cc1)N1C2CCC1CN(Cc1ccccc1)C2,101 to 500%,101 to 500%,101 to 500%,101 to 500%
CC(c1cc(F)c(F)c(F)c1)N1CCN(C(=O)c2ccc(NS(=O)(=O)c3cccc4cccnc34)cc2)[C@H](C)C1 (stereo partly drawn),101 to 500%,1 to 100%,101 to 500%,1 to 100%
C[C@H]1CN(Cc2c(F)ccc(F)c2F)CCN1C(=O)c1ccc(NS(=O)(=O)c2cccc3cccnc23)cc1,1 to 100%,1 to 100%,101 to 500%,101 to 500%
O=C(c1ccc(NS(=O)(=O)c2cccc3cccnc23)cc1)N1CC2CCC(C1)N2Cc1ccc(F)cc1,101 to 500%,1 to 100%,1 to 100%,101 to 500%
CCOC(=O)N1CCN(C(=O)c2ccc(NS(=O)(=O)c3cccc4cccnc34)cc2)c2ccccc21,101 to 500%,101 to 500%,1 to 100%,101 to 500%
CC1CN(Cc2ccc(F)cc2)CC(C)N1C(=O)c1ccc(NS(=O)(=O)c2cccc3cccnc23)cc1 (stereo not drawn),1 to 100%,101 to 500%,1 to 100%,1 to 100%
C[C@@H]1CN(CC2CCC2)CCN1C(=O)c1ccc(NS(=O)(=O)c2cccc3cccnc23)cc1,101 to 500%,101 to 500%,1 to 100%,101 to 500%
C[C@@H]1CN(C(=O)OCC2CCCO2)CCN1C(=O)c1ccc(NS(=O)(=O)c2cccc3cccnc23)cc1 (stereo partly drawn),1 to 100%,1 to 100%,1 to 100%,101 to 500%
C[C@H]1CN(Cc2ccc(Cl)c(F)c2)CCN1C(=O)c1ccc(NS(=O)(=O)c2cccc3cccnc23)cc1Cl,1 to 100%,101 to 500%,101 to 500%,1 to 100%
C[C@H]1CN(Cc2c(F)cc(F)cc2F)CCN1C(=O)c1ccc(NS(=O)(=O)c2cccc3cccnc23)cc1,1 to 100%,101 to 500%,101 to 500%,1 to 100%
CC(c1ccc(F)cc1)N1CCN(C(=O)c2ccc(NS(=O)(=O)c3cccc4cccnc34)cc2)[C@@H](C)C1 (stereo partly drawn),101 to 500%,101 to 500%,101 to 500%,101 to 500%

# Now from value to compound:
activation at 1 µM [1],activation at 1 µM [2],activation at 1 µM [3],activation at 1 µM [4],Structure (SMILES)
101 to 500%,101 to 500%,101 to 500%,101 to 500%,C[C@H]1CN(CC2CCC2)CCN1C(=O)c1ccc(NS(=O)(=O)c2cccc3cccnc23)cc1
101 to 500%,101 to 500%,101 to 500%,101 to 500%,O=C(c1ccc(NS(=O)(=O)c2cccc3cccnc23)cc1)N1CCn2c(nnc2-c2cc(F)cc(F)c2)C1
1 to 100%,101 to 500%,1 to 100%,101 to 500%,C[C@H]1CN(CC2CC2)CCN1C(=O)c1ccc(NS(=O)(=O)c2cccc3cccnc23)cc1
101 to 500%,101 to 500%,101 to 500%,101 to 500%,CCOC(=O)N1[C@H](C)CN(C(=O)c2ccc(NS(=O)(=O)c3cccc4cccnc34)cc2)C[C@@H]1C
1 to 100%,101 to 500%,101 to 500%,101 to 500%,C[C@H]1CN(C(=O)O[C@@H]2CCOC2)CCN1C(=O)c1ccc(NS(=O)(=O)c2cccc3cccnc23)cc1
1 to 100%,1 to 100%,101 to 500%,1 to 100%,C[C@H]1CN(Cc2cc(F)c(F)cc2F)CCN1C(=O)c1ccc(NS(=O)(=O)c2cccc3cccnc23)cc1
101 to 500%,101 to 500%,101 to 500%,101 to 500%,COc1ccccc1N1C[C@@H](C)N(C(=O)c2ccc(NS(=O)(=O)c3cccc4cccnc34)cc2)[C@@H](C)C1
101 to 500%,101 to 500%,101 to 500%,101 to 500%,C[C@@H]1CN(C(=O)OC2CCCC2)CCN1C(=O)c1ccc(NS(=O)(=O)c2cccc3cccnc23)cc1
1 to 100%,1 to 100%,1 to 100%,1 to 100%,CC[C@H]1CN(C(C)c2cc(F)c(F)c(F)c2)CCN1C(=O)c1ccc(NS(=O)(=O)c2cccc3cccnc23)cc1 (stereo partly drawn)
101 to 500%,101 to 500%,101 to 500%,101 to 500%,C[C@@H]1CN(C(=O)c2ccc(NS(=O)(=O)c3cccc4cccnc34)cc2)CCN1Cc1ccccc1
101 to 500%,101 to 500%,1 to 100%,101 to 500%,C[C@@H]1CN(CC2CCCO2)CCN1C(=O)c1ccc(NS(=O)(=O)c2cccc3cccnc23)cc1 (stereo partly drawn)
1 to 100%,101 to 500%,101 to 500%,101 to 500%,C[C@H]1CN(C(=O)c2ccc(NS(=O)(=O)c3cccc4cccnc34)cc2)CCN1C(=O)c1ccccn1
101 to 500%,101 to 500%,1 to 100%,1 to 100%,CC(C)OC(=O)N1CCN(C(=O)c2ccc(NS(=O)(=O)c3cccc4cccnc34)cc2)[C@@H](C)C1
1 to 100%,1 to 100%,1 to 100%,1 to 100%,CC(C)OC(=O)N1CCN(C(=O)c2ccc(NS(=O)(=O)c3cccc4cccnc34)cc2)c2ccccc21
1 to 100%,1 to 100%,1 to 100%,1 to 100%,C[C@@H]1CN(C(=O)OCCC2CCCC2)CCN1C(=O)c1ccc(NS(=O)(=O)c2cccc3cccnc23)cc1
101 to 500%,101 to 500%,101 to 500%,101 to 500%,CC[C@H]1CN(Cc2cc(F)cc(F)c2)CCN1C(=O)c1ccc(NS(=O)(=O)c2cccc3cccnc23)cc1
101 to 500%,101 to 500%,1 to 100%,101 to 500%,C[C@H]1CN(Cc2ccc(Cl)c(F)c2)CCN1C(=O)c1ccc(NS(=O)(=O)c2cccc3cccnc23)cc1
1 to 100%,101 to 500%,1 to 100%,1 to 100%,CC1CN(Cc2c(F)ccc(F)c2F)CC(C)N1C(=O)c1ccc(NS(=O)(=O)c2cccc3cccnc23)cc1 (stereo not drawn)
